Measured values from PMC12053052, “Comprehensive physicochemical, biophysical, and in vitro characterization of lung surfactant SP-A peptidomimetics” (Rsc Pharmaceutics, 2025).
“And” between values parts separate entries of the source, which are not always exact repeats. Identical values can stand only once. “Also recorded” adds a separate entry of the source. No end group written: not given here.

What was measured:
[1] = not given; remark: listed apart in the source
[2] = Octanol/water partition coefficient; format: physicochemical; conditions: shake-flask 1-octanol/water 50:50 v/v, 3 mg peptide in 3 mL, 37 °C, 24 h shaking + 24 h separation, HPLC-UV 220 nm, mean ± SD, N = 3
Experimental: Using similar conditions reported earlier,[14] octanol/water partition coefficient (P) measurements were conducted. A mass of 3 mg of peptide powder was added to 3 mL of 1-octanol (1.5 mL) and water (1.5 mL) to create a 50 : 50 v/v octanol : water ratio in a glass vial and allowed to shake in temperature-controlled water bath at 37 °C. After 24 hours, the shaker was stopped and the vial was undisturbed for 24 hours to allow the solvents to separate. An aliquot (20 μL) of water phase and octanol phase was injected into HPLC to quantify the peptide concentration in each phase.
High-performance liquid chromatography was used to quantify the peptides. The analysis was performed with a Shimadzu LC-2010AHT HPLC system (Kyoto, Japan), with autosampler fitted to a 20 μL sampling loop and dual wavelength UV-Vis detector and reverse phase C18 Phenomenex Prodigy™column (Torrance, CA) with 250 × 4.6 mm, 5 μm particle size. The mobile phase consisted of (A) 0.065% TFA in water and (B) 0.05% TFA in ACN at a flow rate of 1.0 mL min^−1. Analysis was performed using the following gradient elution method: 100% A to 100% B in 15 minutes, maintained at 100% B until 17.5 minutes. The percentage of A reached 100% in 19.5 minutes and maintained until 25 minutes. The column was maintained at 25 °C. The injection volume was 20 μL. The UV detector was set at 220 nm wavelength. […]

[3] = In vitro solubility in pure solvents; format: physicochemical; conditions: excess solid, rotated 24 h at ambient room temperature, 0.2 μm filtered, HPLC-UV 220 nm, mean ± SD, N = 3; for solubility thermodynamic at 24 h: PBS, pH 7.4, aqueous buffer, thermodynamic from solid
Experimental: In vitro solubility measurements were conducted using conditions earlier reported.[13] Excess of peptide powder was added to known volume of pure solvent in a glass vial. The vial was allowed to rotate at ambient room temperature for 24 hours.[13] The test solution was filtered using 0.2 μm PTFE or PVDF membrane filters for organic and aqueous solvents respectively. The filtered solution was chemically analyzed by HPLC using conditions described in the HPLC section below.
High-performance liquid chromatography was used to quantify the peptides. The analysis was performed with a Shimadzu LC-2010AHT HPLC system (Kyoto, Japan), with autosampler fitted to a 20 μL sampling loop and dual wavelength UV-Vis detector and reverse phase C18 Phenomenex Prodigy™column (Torrance, CA) with 250 × 4.6 mm, 5 μm particle size. The mobile phase consisted of (A) 0.065% TFA in water and (B) 0.05% TFA in ACN at a flow rate of 1.0 mL min^−1. Analysis was performed using the following gradient elution method: 100% A to 100% B in 15 minutes, maintained at 100% B until 17.5 minutes. The percentage of A reached 100% in 19.5 minutes and maintained until 25 minutes. The column was maintained at 25 °C. The injection volume was 20 μL. The UV detector was set at 220 nm wavelength. The solvents used to dissolve 10-AA and 20-AA peptide analysis were PBS and pure water, respectively.

[4] = system: A549 (human alveolar epithelial lung cells); experiment: In vitro cell viability, resazurin assay; format: cell-based; conditions: 0.1–1000 μM peptide, 72 h, relative to growth medium control, n = 6, ANOVA/Tukey p < 0.05
Text: (§1) The cell viability of three different human pulmonary cell lines from different lung areas representing the conducting airways, the mid-lung and deep lung respiratory regions of the small airways. They are A549 (human alveolar epithelial lung cells), H358 (human bronchioalveolar epithelial cells) and NCI-H441 (human papillary lung adenocarcinoma cells), were studied using the Resazurin assay. Pulmonary cell lines A549 (ATCC® CCL-185™), H358 (ATCC® CRL-5807™) and NCI-H441 (ATCC® HTB-174™) were purchased from the American Type Culture Collection ATCC® (Manassas, VA). As previously reported,[16] A549 and H358 were grown in Dulbecco's modified eagle's medium (DMEM) Advanced 1× supplemented with 10% v/v fetal bovine serum (FBS), Pen-Strep (100 U mL^−1, 100 μg mL^−1), Fungizone® (0.5 μg mL^−1 amphotericin B, 0.41 μg mL^−1 sodium deoxycholate) and 2 mM L-glutamine obtained from Gibco® by Life Technologies (Thermo Fisher Scientific Inc., Waltham, MA). H441 cell line was grown in RPMI 1640 with L-glutamine Gibco® by Life Technologies (Thermo Fisher Scientific Inc., Waltham, MA).
(§2) The assay was conducted using similar previously reported conditions.[16] Briefly, in Nunc™ MicroWell™ 96-well optical-bottom plates with polymer base (ThermoScientific Waltham, MA) each cell line was seeded at a concentration of 5000 cells in 100 μL per well (six wells, n = 6) and allowed to attach for 48 hours. The cells were treated with 100 μL volume of different concentrations (0.1–1000 μM) of the peptides dissolved in the respective media. After 72 hours, the plate was treated with 20 μL of 10 μM resazurin solution. After 3–4 hours, the fluorescence intensity was read at 514 nm (excitation) and 590 nm (emission) wavelengths using the Synergy H1 Multi-Mode Reader (BioTek Instruments, Inc., Winooski, Vermont). The corresponding growth media was used as control for each cell line. Relative viability was calculated as a ratio of fluorescence intensity of the sample to the control. [drawing 1]

[5] = system: NCI-H441 (human papillary lung adenocarcinoma cells); experiment: In vitro cell viability, resazurin assay; format: cell-based; conditions: 0.1–1000 μM peptide, 72 h, relative to growth medium control, n = 6, ANOVA/Tukey p < 0.05
Text: as §1, §2

[6] = system: H358 (human bronchioalveolar epithelial cells); experiment: In vitro cell viability, resazurin assay; format: cell-based; conditions: 0.1–1000 μM peptide, 72 h, relative to growth medium control, n = 6, ANOVA/Tukey p < 0.05
Text: as §1, §2

Row | Substance | Enthalpy (ΔH) of melting | Solubility in MilliQ water ([3]; thermodynamic) | Solubility in absolute ethanol ([3]; thermodynamic) | Solubility in methanol ([3]; thermodynamic) | solubility thermodynamic at 24 h [3] | other results
1 | H-KEQCVEMYTD-OH | 3.08 J/g |  |  |  |  | Melting temperature (Tm), characteristic endothermic peak [1]: 171 °C and 168 °C
2 | H-PAGRGKEQCVEMYTDGQWND-OH | 1.08 J/g |  |  |  |  | 
3 | KEQCVEMYTD [SP-A 10-AA AC] |  | 420 ± 40 µg/mL | 40 ± 10 µg/mL | 10 ± 0.3 µg/mL |  | logP ([2]; read-out: Log P (octanol/water partition coefficient)): -1.07 ± 0.2; Solubility in PBS (pH 7.4) ([3]; thermodynamic): 1.16 ± 0.01 mg mL^−1
4 | KEQCVEMYTD [SP-A 10-AA PS] |  | 12200 ± 50 µg/mL | 2060 ± 30 µg/mL | 4250 ± 10 µg/mL | 1810 ± 20 µg/mL | Log P (octanol/water partition coefficient) [2]: −1.79
5 | PAGRGKEQCVEMYTDGQWND [SP-A 20-AA AC] |  |  | 20 ± 20 µg/mL | 20 ± 5 µg/mL |  | Relative cell viability, A549 [4]: significantly reduced cell viability at concentrations above 100 μM; Relative cell viability, H441 [5]: reduction in viability at higher concentrations; also recorded: significantly reduced cell viability at concentrations above 100 μM
6 | PAGRGKEQCVEMYTDGQWND [SP-A 20-AA PS] |  |  | 110 ± 50 µg/mL | 1450 ± 20 µg/mL | 470 ± 4 µg/mL | Relative cell viability, H358 [6]: decreased viability at higher concentrations; also recorded: statistically significant decrease in viability only with 20-AA PS at 1000 μM
